Results reported in US12239645B2, “Targeted dosing for the treatment of complement mediated disorders” (Achillion Pharmaceuticals, Inc., priority 2018, dated 2025).
Values after ≈ are worked out from the molar mass of the structure shown. Like-named read-outs stand apart in the source and are kept apart here.

Tested on: complement alternative pathway (AP) activity
Experiment: MAD study: ex vivo serum AP hemolysis activity and PK-PD analysis
Assay type: in vivo, human
Settings: for minimum AP activity following dosing: Days 7 and 14
Method: Ex vivo serum AP hemolysis assays were conducted in 96-well microtiter plates divided into two parts, one for hemolysis and the other for serum background color subtraction. Briefly, a suspension of rabbit red blood cells (RBCs) was centrifuged at 800×g at 4° C. for 3 minutes and the supernatant was removed to get rid of the RBC debris. The RBC cell pellet was re-suspended gently with pre-chilled gelatin veronal buffer (GVB0) containing 10 mM MgEGTA to a density of 5×10^8 cells/mL. Other controls including buffer, spontaneous rabbit RBC lysis, 100% RBC lysis (in water), and normal serum control were set up alongside the test samples as well. Serum was placed in a 37° C. water-bath until mostly thawed and immediately transferred to ice bath. 20% serum was prepared with GVB0-MgEGTA buffer and kept at ice bath before testing. Reactions were carried out in a 96 well plate by mixing 50 μl of 20% serum with equal volume of GVB0-MgEGTA buffer and then quickly adding 20 μl of RBC suspension. The plate was shaken on a microtiter plate shaker for 5 seconds and then incubated at 37° C. for 30 minutes. Halfway during the incubation period, the plate was shaken for another 5 seconds as described above. At the end of the incubation, the plate was centrifuged at 800×g at 4° C. for 3 minutes to pellet the un-lysed rabbit RBCs. 80 μl of supernatant was removed carefully from all wells and transferred to a clear flat-bottom microtiter plate for the measurement of optical absorbance at 405 nm (A405) in a Molecular Devices Spectramax Plus plate reader. AP hemolysis in each well was calculated relative to the activity of the NHS reference sample formulas as follows: Hemolysis (%)=((Hm−Bk)−(Sp−Bf))/((NH−BkNH)−(Sp−Bf))×100%
where Hm=A405 in the hemolysis well, Bk=A405 in the corresponding background well, Sp=mean A405 in the spontaneous hemolysis wells, Bf=mean A405 in the buffer alone wells, NH=mean A405 in the reference NHS wells, and BkNH=mean A405 in the corresponding background wells.
The PK-PD relationship was evaluated using time-matched plasma Compound 1 concentrations and serum AP inhibition values by non-linear regression with GraphPad Prism (La Jolla, CA) using the following two models: • 1. The simple Emax model to determine the 50% effective concentration (EC50): Y=E0+Emax×X/(EC50+X) where X=plasma Compound 1 concentration, Y=percent inhibition in the corresponding serum sample, E0=0% inhibition (pre-dose AP activity), and Emax=100% inhibition. • 2. The four-parameter sigmoidal model to determine EC50 and the 90% effective concentration (EC90): Y=E0+(Emax−E0)/(1+10^((Log EC50−X)×HillSlope)) where X, Y, E0, and Emax are defined as above (Emax model) and HillSlope=the slope factor or Hill slope. Pharmacodynamic and Pharmacokinetic Results AP Activity Measured with AP Hemolysis
A multiple ascending dose (MAD) study of Compound 1 with two additional single-dose cohorts was also completed. […] Secondary objectives included evaluation of the pharmacokinetic (PK) profile and the relationship between Compound 1 PK and pharmacodynamic (PD) characteristics, that is, the inhibition of complement alternative pathway (AP) activity (PK/PD). In the MAD study, multiple-dose pharmacokinetics and pharmacodynamics of Compound 1 were evaluated in four dose groups administered Compound 1 (40, 80, 120 and 200 mg BID) in the fasted state for 14-days (Table 3). Eight subjects received active drug in each group; eight subjects received placebo in the first dose group (40 mg) and two subjects received placebo in each of the other three dose groups. Two additional cohorts were administered Compound 1 at single doses of 240 mg (fasted subjects) and 120 mg (fed subjects) (Table 3). The two single-dose cohorts each comprised six subjects receiving active drug and two subjects receiving placebo. […]

[1] = 40 mg BID, Day 14, AP hemolysis
[2] = 40 mg BID, Days 7 and 14 Combined Analysis, AP hemolysis
[3] = 80 mg BID, Day 14, AP hemolysis
[4] = 80 mg BID, Days 7 and 14 Combined Analysis, AP hemolysis
[5] = 120 mg BID, Day 7, AP hemolysis
[6] = 120 mg BID, Day 14, AP hemolysis
[7] = 120 mg BID, Days 7 and 14 Combined Analysis, AP hemolysis
[8] = 120 mg and 200 mg BID, 14 days, FIG. 13
[9] = 200 mg BID, Day 7, AP hemolysis
[10] = 200 mg BID, Day 14, AP hemolysis
[11] = 200 mg BID, Days 7 and 14 Combined Analysis, AP hemolysis
[12] = Homo sapiens, sigmoidal model, multiple-dose cohorts, AP hemolysis

SMILES: CC(=O)c1nn(CC(=O)N2[C@H](C(=O)Nc3nc(Br)ccc3C)C[C@@]3(C)C[C@@H]23)c2ccc(-c3cnc(C)nc3)cc12 [Compound 1, (1R,3S,5R)-2-(2-(3-acetyl-5-(2-methylpyrimidin-5-yl)-1H-indazol-1-yl)acetyl)-N-(6-bromo-3-methylpyridin-2-yl)-5-methyl-2-azabicyclo[3.1.0]hexane-3-carboxamide]
- % AUEC0-12, Mean (40 mg BID, Day 7, AP hemolysis): 49.9%
- DURATION0-12 (time with AP inhibition 90% or greater), Mean (40 mg BID, Day 7, AP hemolysis): 2.0 h
- % AUEC0-12, Mean [1]: 61.4%
- DURATION0-12 (time with AP inhibition 90% or greater), Mean [1]: 2.6 h
- minimum AP activity following dosing (40 mg BID): 4.00%
- % AUEC0-12, Mean [2]: 55.6%
- DURATION0-12 (time with AP inhibition 90% or greater), Mean [2]: 2.3 h
- % AUEC0-12, Mean (80 mg BID, Day 7, AP hemolysis): 87.4%
- DURATION0-12 (time with AP inhibition 90% or greater), Mean (80 mg BID, Day 7, AP hemolysis): 7.3 h
- % AUEC0-12, Mean [3]: 87.7%
- DURATION0-12 (time with AP inhibition 90% or greater), Mean [3]: 8.0 h
- % AUEC0-12, Mean [4]: 87.6%
- DURATION0-12 (time with AP inhibition 90% or greater), Mean [4]: 7.6 h
- mean AP activity (120 mg BID, 0 h to 10 h on Day 7 and 0 h to 12 h on Day 14): below 10%
- % AUEC0-12, Mean [5]: 97.5%
- DURATION0-12 (time with AP inhibition 90% or greater), Mean [5]: 10.9 h
- % AUEC0-12, Mean [6]: 98.8%
- DURATION0-12 (time with AP inhibition 90% or greater), Mean [6]: 11.6 h
- % AUEC0-12, Mean [7]: 98.2%
- DURATION0-12 (time with AP inhibition 90% or greater), Mean [7]: 11.3 h
- average reduction in AP hemolysis [8]: over 95%
- reduction in AP hemolysis for the duration of the study [8]: over 90%
- serum AP hemolysis activity (120 mg single dose fed, from 2 h through 6 h): ≤ 10%
- mean AP activity (200 mg BID, 0 h to 12 h on Days 7 and 14): below 10%
- % AUEC0-12, Mean [9]: 99.5%
- DURATION0-12 (time with AP inhibition 90% or greater), Mean [9]: 11.9 h
- % AUEC0-12, Mean [10]: 98.8%
- DURATION0-12 (time with AP inhibition 90% or greater), Mean [10]: 11.5 h
- % AUEC0-12, Mean [11]: 99.1%
- DURATION0-12 (time with AP inhibition 90% or greater), Mean [11]: 11.7 h
- time mean inhibition persisted at 90% or greater post-dose (240 mg single dose): at least 12 hours
- serum AP hemolysis activity (240 mg single dose fasted, from 1.5 h through 16 h): ≤ 10%
- AP inhibition, all subjects (240 mg single dose, within two hours of dosing): ≥ 90%
- minimum AP activity following dosing (Groups 2 through 4 (80, 120, 200 mg BID)): 0.00%
- inhibition at 40 mg (Homo sapiens, 0 h, 40 mg BID, Days 6 Through 14, AP hemolysis, read-out: AP Inhibition at 0 hr, Mean): 28.7%
- inhibition at 80 mg (Homo sapiens, 0 h, 80 mg BID, Days 6 Through 14, AP hemolysis, read-out: AP Inhibition at 0 hr, Mean): 74.1%
- inhibition at 120 mg (Homo sapiens, 0 h, 120 mg BID, Days 6 Through 14, AP hemolysis, read-out: AP Inhibition at 0 hr, Mean): 97.2%
- inhibition at 200 mg (Homo sapiens, 0 h, 200 mg BID, Days 6 Through 14, AP hemolysis, read-out: AP Inhibition at 0 hr, Mean): 97.6%
- inhibition at 40 mg (Homo sapiens, 40 mg BID, Day 7, AP hemolysis, read-out: AP Inhibition at 0 hr, Mean): 20%
- inhibition at 40 mg (Homo sapiens, 40 mg BID, Day 7, AP hemolysis, read-out: AP Inhibition at 12 hr, Mean): 17.5%
- inhibition at 40 mg (Homo sapiens, 40 mg BID, Day 14, AP hemolysis, read-out: AP Inhibition at 0 hr, Mean): 29.2%
- inhibition at 40 mg (Homo sapiens, 40 mg BID, Day 14, AP hemolysis, read-out: AP Inhibition at 12 hr, Mean): 29%
- inhibition at 80 mg (Homo sapiens, 80 mg BID, Day 7, AP hemolysis, read-out: AP Inhibition at 0 hr, Mean): 60.5%
- inhibition at 80 mg (Homo sapiens, 80 mg BID, Day 7, AP hemolysis, read-out: AP Inhibition at 12 hr, Mean): 61.5%
- inhibition at 80 mg (Homo sapiens, 80 mg BID, Day 14, AP hemolysis, read-out: AP Inhibition at 0 hr, Mean): 79%
- inhibition at 80 mg (Homo sapiens, 80 mg BID, Day 14, AP hemolysis, read-out: AP Inhibition at 12 hr, Mean): 52%
- inhibition at 120 mg (Homo sapiens, 120 mg BID, AP Hemolysis and AP Wieslab assays, read-out: AP inhibition, mean value at Ctrough): > 90%
- inhibition at 120 mg (Homo sapiens, 120 mg BID, Day 7, AP hemolysis, read-out: AP Inhibition at 0 hr, Mean): 91.8%
- inhibition at 120 mg (Homo sapiens, 120 mg BID, Day 7, AP hemolysis, read-out: AP Inhibition at 12 hr, Mean): 86%
- inhibition at 120 mg (Homo sapiens, 120 mg BID, Day 14, AP hemolysis, read-out: AP Inhibition at 0 hr, Mean): 99.7%
- inhibition at 120 mg (Homo sapiens, 120 mg BID, Day 14, AP hemolysis, read-out: AP Inhibition at 12 hr, Mean): 89.7%
- inhibition at 200 mg (Homo sapiens, 200 mg BID, AP Hemolysis and AP Wieslab assays, read-out: AP inhibition, mean value at Ctrough): > 95%
- inhibition at 200 mg (Homo sapiens, 200 mg BID, Day 7, AP hemolysis, read-out: AP Inhibition at 0 hr, Mean): 95%
- inhibition at 200 mg (Homo sapiens, 200 mg BID, Day 7, AP hemolysis, read-out: AP Inhibition at 12 hr, Mean): 97.3%
- inhibition at 200 mg (Homo sapiens, 200 mg BID, Day 14, AP hemolysis, read-out: AP Inhibition at 0 hr, Mean): 98.8%
- inhibition at 200 mg (Homo sapiens, 200 mg BID, Day 14, AP hemolysis, read-out: AP Inhibition at 12 hr, Mean): 92.8%
- inhibition at 40 mg (Homo sapiens, 12 h, 40 mg BID, Days 6 Through 14, AP hemolysis, read-out: AP Inhibition at 12 hr, Mean): 23.3%
- inhibition at 80 mg (Homo sapiens, 12 h, 80 mg BID, Days 6 Through 14, AP hemolysis, read-out: AP Inhibition at 12 hr, Mean): 56.8%
- inhibition at 120 mg (Homo sapiens, 12 h, 120 mg BID, Days 6 Through 14, AP hemolysis, read-out: AP Inhibition at 12 hr, Mean): 87.8%
- inhibition at 200 mg (Homo sapiens, 12 h, 200 mg BID, Days 6 Through 14, AP hemolysis, read-out: AP Inhibition at 12 hr, Mean): 95.1%
- inhibition at 0.08 µg/mL (Homo sapiens, at Ctrough of about 80 ng/mL, MAD, ex vivo AP activity assays): ~90%
- inhibition at 0.15 µg/mL (Homo sapiens, at Ctrough of about 150 ng/mL, MAD, ex vivo AP activity assays): > 95%
- inhibition at 120 mg (Homo sapiens, po, steady state Ctrough, oral 120 mg BID, read-out: mean alternative pathway inhibition): > 95%
- EC50 (Homo sapiens, simple Emax model, multiple-dose cohorts, AP hemolysis): 0.0191 µg/mL (≈ 0.0317 µM)
- IC90 (Homo sapiens, sigmoidal model, multiple ascending dose, ex-vivo AP hemolysis, FIG. 12, read-out: modeled IC90 drug plasma concentration (90% inhibition level)): 0.088 µg/mL (≈ 0.146 µM)
- EC50 [12]: 0.0246 µg/mL (≈ 0.0408 µM)
- EC90 [12]: 0.0881 µg/mL (≈ 0.146 µM)
- recovery of AP activity to approximately pre-dose levels (all doses, three days after the last dose): ≤ 17 days
- potency relative to Danicopan (IC90 plasma concentration) (sigmoidal model, FIG. 12): more than 2.5 times
- time of recovery of AP hemolysis activity to nearly pre-dose levels (single-dose cohorts 240 mg and 120 mg): ≤ 48 h
